The results in this text go back to BindingDB's records for patent US20230303553 (Jiangsu Tasly Diyi Pharmaceutical, 2023).

The target in the experiment is Cyclin-dependent kinase 6 (Homo sapiens, UniProt Q00534). Nature of the experiment: CDK6 Kinase Activity Analysis and Detection Method.

SMILES strings stand for the structures.

Chain of Cyclin-dependent kinase 6 (Q00534 whole entry): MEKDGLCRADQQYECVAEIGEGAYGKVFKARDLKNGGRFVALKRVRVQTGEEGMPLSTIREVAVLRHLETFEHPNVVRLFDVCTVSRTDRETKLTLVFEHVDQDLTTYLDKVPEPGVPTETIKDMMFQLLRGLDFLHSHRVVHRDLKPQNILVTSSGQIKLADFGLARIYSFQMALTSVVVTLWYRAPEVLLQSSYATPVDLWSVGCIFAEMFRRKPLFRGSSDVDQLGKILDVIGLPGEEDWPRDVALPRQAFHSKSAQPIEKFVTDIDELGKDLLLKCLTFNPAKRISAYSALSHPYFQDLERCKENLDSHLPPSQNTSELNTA

Regarding `CCN1CCN(C(=O)c2ccc(Nc3ncc(F)c(-c4ccc5nc(C)sc5c4)n3)nc2)CC1` [US20230303553, Example 12], the IC50 (as a rule, the concentration that gives 50% inhibition) turned out to be 127 nM.
